For one test, the target named is T1, CFTR (Homo sapiens, UniProt P13569).
T1 construct: hPSC-derived cyst structures generated in 3D gels contain functional CFTR protein; endogenous in cells; host or cells: cysts from H9 hESC- and Y2-1 iPSC-derived cholangiocytes
In words: Forskolin-induced swelling assay on hPSC-derived cystic structures. The format is cell-based. The settings on record: hPSC-derived cysts. The text has this:
F/I stimulated cyst swelling was quantified using velocity imaging software. The total size of the cysts is normalized to that prior to F/I stimulation. Values are from three individual experiments.
With this assay, activation of the cAMP pathway by the addition of Forskolin/IBMX increases CFTR function resulting in fluid transport and swelling of the cyst. Swelling can be visualized following staining with calcein green, a cell-permeable fluorescent dye (FIG. 18a).

Test [1] has as its system iPSC-derived cholangiocytes. In words: Cyst formation in 3D gel culture of iPSC-derived cholangiocytes. It is filed as cell-based, human. The note with it: normal iPSC-derived cholangiocytes. The source says: After embedding in collagen/Matrigel culture, cyst formation was induced from the aggregates by the addition of forskolin for the first week of the two-week culture period (left). Without forskolin stimulation, the CF-iPSCs derived cholangiocytes formed branched ductal structure rather than hollow cysts (right).
CF-iPSCs derived cholangiocytes were maintained in the 3D gel conditions in the presence or absence of forskolin for the first week of the two weeks culture period (left graph). Normal iPS cells-derived cholangiocytes were maintained in the presence or absence of CFTR inhibitor for the first week of the two-week culture periods (right graph). […] Addition of the CFTR inhibitor to normal iPSC-derived cholangiocytes delayed cyst formation (right graph).
Both hiPSC lines generated hepatoblast populations with kinetics similar to those observed for wild type hPSCs (FIG. 24a, b). […] However, many of the cysts that developed from the patient iPSC we not completely hollow, but rather contained branched ductal structures (FIG. 19c).

The subject of a further test is hPSCs. In words: Definitive endoderm induction with CHIR99021 replacing Wnt3a, flow cytometry. It is filed as cell-based, human. The note with it: in combination with activin. Here is the method: CHIR99021 is a selective inhibitor of GSK3 that has been reported to mimic the canonical Wnt signal pathway. CHIR99021 was tested as a replacement of wnt3a (e.g. added in combination with activin) in inducing Embryoid bodies and monolayer induction for definitive endoderm cells from hPSCs. […] At day 0, the cells were cultured in a RPMI based medium supplemented with glutamine (2 mM), MTG (4.5×10^−4 M: Sigma), activin A (100 ng/ml), CHIR99021 (0.3 μM) or Wnt3a (25 ng/ml). […] The media was changed every the other day. At day 7, the definitive endoderm was specified to a hepatic fate by treatment with FGF and BMP pathway agonists, as described above.
In general terms: In flow cytometry, cells or beads pass a laser one at a time.

The subject of another test is other kinases. The settings on record: in vitro kinase assays; cited from earlier work.
Test [2] deals with hESC-derived embryoid bodies. In words: Endoderm induction in hESC-derived embryoid bodies, flow cytometry. It is filed as cell-based, human. The settings on record: day six EBs. How it is done:
Similar to protocols using monolayer cultures^16, it involves specific steps that recapitulate the critical stages of liver development in the early embryo. EBs are formed from small aggregates by culture for 24 hours in low levels of BMP4, as previously described^18. The EBs are subsequently exposed to high concentrations of activin A (hereafter referred to as activin) for five days to induce definitive endoderm, a population defined by expression of the surface markers CXCR4, CKIT and EPCAM and the transcription factors SOX17 and FOXA2.
Addition of Wnt3A to the activin-induced EB cultures led to reproducible increases in the proportion of CXCR4^+, SOX17^+ and FOXA2^+ cells within the EBs (FIG. 1c). With the increase in CXCR4 expression, the proportion of CKIT^+CXCR4^+ and CXCR4^+EPCAM^+ cells increased to greater than 95% of the population. […] Endoderm induction in the EBs was influenced by the base culture media used. StemPro34 supported more efficient endoderm induction than neural basal media that we used previously (FIG. 1f). The induction of highly enriched endoderm is an important first step in the efficient and reproducible generation of hepatocyte-like cells from hPSCs.
(§1) Media was changed every 3 days.
Flow cytometric analyses were performed as described previously^45. […] Stained cells were analyzed using an LSRII flow cytometer (BD).

The test system of test [3] is day six EB-derived monolayer cells. In words: Extended activin treatment of EB-derived monolayer cells, flow cytometry. It is filed as cell-based, human. How it is done: FIG. 3A is an intracellular flow cytometric analysis showing the proportion of SOX17^+ and FOXA2^+ cells in day six activin/Wnt3A-induced EBs as well as in monolayer populations derived from them. The monolayer populations were cultured either directly in the specification media (−activin) or for two days in activin (50 ng/ml) and then in the specification media (+activin). Populations were analyzed following two or four days culture in the specification media (total days eight and 10 for the −activin group and days 10 and 12 for the +activin group). Bars represent standard deviation (SD) of the mean of three independent experiments.
FIG. 3E is a flow cytometric analysis showing the proportion of CD31^+ CD90^+ and EPCAM^+ cells in monolayer populations derived from activin treated (day 26) and non-treated (day 24) endoderm. […] In contrast, a higher portion of EPCAM^+ cells was detected in the population derived from the activin-treated endoderm compared to the population generated from the non-treated cells (EPCAM: 90.7+/−2.7% vs 56.8+/−7.3%; P<0.01, n=3).
It was not known if prolonged signaling would be useful with human PSC. The effect of increasing the duration of this signaling pathway was extended in the human system by culturing the monolayer cells for two days in activin prior to the FGF/BMP4 specification step. […] Without being bound by theory, since the total cell number was lower in the treated population (FIG. 3b) it is possible that activin signaling at this stage preferentially supports the survival of endodermal cells.
as §1
Flow cytometric analyses were performed as described previously^45. For cell surface markers, staining was carried out in PBS with 10% FCS. For intracellular proteins, staining was performed on cells fixed with 4% paraformaldehyde (Electron Microscopy Science, Hatfield, PA, USA) in PBS. Cells were permeabilized with 90% ice-cold methanol for 20 minutes for Sox17 and FoxA2 staining as previously described^45. Albumin and alpha-fetoprotein staining was performed in PBS with 10% FCS and 0.5% saponin (Sigma). Stained cells were analyzed using an LSRII flow cytometer (BD).

For test [4], the system named is H9 hESCs, H1 hESCs and 38-2 iPSCs. In words: Hepatic specification from other hPSC lines, flow cytometry. It is filed as cell-based, human.
From the text: To determine whether the approach detailed above is broadly applicable to different human pluripotent stem cell lines the protocol was used to differentiate the hESC lines H9 and H1 as well as an induced pluripotent cell (iPSC) line 38-2 to a hepatic fate. Day six EBs from all three lines contained high proportions of CKIT^+CXCR4^+ and CKIT^EPCAM* cells following the Wnt3a/activin induction step (FIG. 7a). Although the proportion of EPCAIVT cells was high in all EBs, the H9-derived cells expressed substantially higher levels of EPCAM than cells generated from the other lines. The levels of EPCAM expression correlated with the degree of endoderm induction, as greater than 95% of the H9-derived population expressed SOX17^+ and FOXA2^+ whereas only 65-70% of the iPSC-derived cells expressed these transcription factors (FIG. 7a). These findings indicate that surface marker analysis alone is not sufficient to monitor endoderm development and that quantitative analyses of SOX17 and FOXA2 expression is required to measure induction of this germ layer. As observed with the HES2 cells, extended activin/nodal signaling improved hepatic development of the CKIT^+CXCR4^+ population from each line (FIG. 7b). However, the duration of activin treatment necessary to generate significant levels of ALB expression varied between cell lines. Whereas higher levels of ALB expression were achieved following two days of activin treatment with H9-derived cells, both H1 and 38-2 cells required four days of additional activin signaling. With this treatment, it was possible to generate cultures consisting of 90%, 85% and 70% ALB^+ cells from the H9, H1 and 38-2 cell lines, respectively (FIG. 7c).
as §1
Flow cytometric analyses were performed as described previously^45. For cell surface markers, staining was carried out in PBS with 10% FCS. For intracellular proteins, staining was performed on cells fixed with 4% paraformaldehyde (Electron Microscopy Science, Hatfield, PA, USA) in PBS. […] Stained cells were analyzed using an LSRII flow cytometer (BD).

The mark [5] stands for this setting: day 10/12, two days activin 50 ng/ml before specification media.
The mark [6] stands for this setting: monolayer from activin treated endoderm, day 26.

The values below come from patent US12129490B2, “Methods for generating hepatocytes and cholangiocytes from pluripotent stem cells” (UNIVERSITY HEALTH NETWORK, priority 2018, dated 2024).

T1 sequence (P13569 whole entry): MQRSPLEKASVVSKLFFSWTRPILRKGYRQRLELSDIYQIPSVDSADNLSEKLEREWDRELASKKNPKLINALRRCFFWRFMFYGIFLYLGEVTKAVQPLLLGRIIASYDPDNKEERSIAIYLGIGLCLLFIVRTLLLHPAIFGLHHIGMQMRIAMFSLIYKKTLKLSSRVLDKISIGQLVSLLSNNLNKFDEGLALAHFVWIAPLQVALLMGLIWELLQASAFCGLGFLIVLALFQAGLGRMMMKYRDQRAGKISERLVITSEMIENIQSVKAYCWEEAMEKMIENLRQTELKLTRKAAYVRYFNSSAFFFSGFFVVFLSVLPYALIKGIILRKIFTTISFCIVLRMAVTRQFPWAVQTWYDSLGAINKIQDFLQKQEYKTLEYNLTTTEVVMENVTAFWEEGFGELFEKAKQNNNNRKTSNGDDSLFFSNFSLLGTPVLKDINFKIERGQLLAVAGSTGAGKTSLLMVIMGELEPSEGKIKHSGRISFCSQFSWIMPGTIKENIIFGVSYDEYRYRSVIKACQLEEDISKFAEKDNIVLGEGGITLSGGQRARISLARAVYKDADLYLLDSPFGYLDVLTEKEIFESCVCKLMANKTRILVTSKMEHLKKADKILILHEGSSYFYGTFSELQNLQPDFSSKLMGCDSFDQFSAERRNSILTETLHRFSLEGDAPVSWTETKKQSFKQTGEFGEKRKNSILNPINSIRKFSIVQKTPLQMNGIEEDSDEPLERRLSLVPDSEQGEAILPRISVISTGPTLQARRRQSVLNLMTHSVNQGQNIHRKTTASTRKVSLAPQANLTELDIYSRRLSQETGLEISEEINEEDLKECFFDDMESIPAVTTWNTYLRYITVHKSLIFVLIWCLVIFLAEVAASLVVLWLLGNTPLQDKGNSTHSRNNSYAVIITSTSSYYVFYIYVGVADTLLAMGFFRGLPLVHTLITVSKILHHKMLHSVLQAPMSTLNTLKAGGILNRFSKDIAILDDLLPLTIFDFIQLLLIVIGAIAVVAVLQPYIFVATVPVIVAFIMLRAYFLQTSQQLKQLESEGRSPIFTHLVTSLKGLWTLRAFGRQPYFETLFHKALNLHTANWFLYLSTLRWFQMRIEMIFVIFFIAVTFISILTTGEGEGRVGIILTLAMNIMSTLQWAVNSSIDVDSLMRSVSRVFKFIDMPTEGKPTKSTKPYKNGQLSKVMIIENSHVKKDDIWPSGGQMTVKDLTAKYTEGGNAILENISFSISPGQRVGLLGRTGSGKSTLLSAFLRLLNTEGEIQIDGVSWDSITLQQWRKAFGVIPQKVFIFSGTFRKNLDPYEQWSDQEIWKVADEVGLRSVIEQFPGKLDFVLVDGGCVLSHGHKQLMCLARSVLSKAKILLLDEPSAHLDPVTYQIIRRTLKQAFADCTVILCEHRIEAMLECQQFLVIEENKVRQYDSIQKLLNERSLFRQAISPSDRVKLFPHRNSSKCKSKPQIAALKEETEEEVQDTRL

With `O=C(O)c1ccc(/C=C2\SC(=S)N(c3cccc(C(F)(F)F)c3)C2=O)cc1` [CFTRinh-172], the “effect on Forskolin/IBMX induced swelling” value on CFTR is on record as “blocked”. The cyst formation result in test [1] is “delayed”.

As to `Cc1c[nH]c(-c2cnc(NCCNc3ccc(C#N)cn3)nc2-c2ccc(Cl)cc2Cl)n1` [CHIR 99021], in the test on hPSCs, the “proportion of CKIT+CXCR4+ and CXCR4+EPCAM+ cells” value is “greater than 95%”. In the test with other kinases, the “effect on other kinases” value is listed as “little effect”.

Regarding activin: Activin A, nodal agonist, in test [2], the “proportion co-expressing CXCR4 and CKIT or CXCR4 and EPCAM” value is given as “greater than 90%”. The “proportion of FOXA2+ cells” value in test [3] (setting [5]) is 92.7+/−2.5%; in test [3] (days 8/10, two days activin 50 ng/ml before specification media), 96.1+/−0.9%. In addition, the “proportion of SOX17+ cells” value in test [3] (setting [5]) is 73.3+/−7.5%. Further, the “proportion of CD31+ cells” value in test [3] (setting [6]) is on record as 0.49+/−0.11%. For the same compound, the “proportion of CD90+ cells” value in test [3] (setting [6]) was 8.5+/−1.19%. Further, the “proportion of EPCAM+ cells” value in test [3] (setting [6]) is reported as 90.7+/−2.7%. For the same compound, the “ALB+ cells” value in test [4] (38-2, four days additional activin) came to 70%; in test [4] (H1, four days additional activin), 85%; in test [4] (H9, two days additional activin), 90%.
